Test results as given in US20190284192A1, “NITROGENOUS MACROCYCLIC COMPOUND, PREPARATION METHOD THEREFOR, PHARMACEUTICAL COMPOSITION AND APPLICATION THEREOF” (LUOXIN PHARMACEUTICAL (SHANGHAI) CO., LTD., priority 2016, published 2019).
Where two headings read alike, the source gives them in different places.

How the values were obtained:
BRD4 (BD1) = biological target: T1, BRD4 (BD1) (Homo sapiens, UniProt O60885); assay: BRD4 (BD1) bromodomain binding, HTRF; conditions: 2 h incubation at r.t.
T1 construct: Each member comprises two tandem bromodomains (BD1 and BD2) for recognizing the acetylated lysine residues

BRD4 (BD2) = biological target: T2, BRD4 (BD2) (Homo sapiens, UniProt O60885); assay: BRD4 (BD2) bromodomain binding, HTRF; conditions: 2 h incubation at r.t.
T2 construct: Each member comprises two tandem bromodomains (BD1 and BD2) for recognizing the acetylated lysine residues

MV-4-11 cells = assay: Inhibitory effect on MV-4-11 cells (CellTiter-Glo); format: cell-based; conditions: Homo sapiens, MV4-11; 72 hours, CellTiter-Glo; read-out: MV-4-11
Procedure: The 1st Day: Seed the Cells on the Plate
1. The cells were verified that they were in good conditions by observation under microscope;
2. The cells were transferred to a 15 mL centrifuge tube, after centrifuged at 1000 rpm for 5 min, the supernatant was discarded;
3. The complete medium (IMDM+10% FBS) was added, then blown and patted into single cell suspension, counted by Vi-cell cytometer, the cell suspension was adjusted to desired cell density by the complete medium.
4. The cells were inoculated into a 96 well plate, the cell number was 15000/well at 100 μL per well, 100 μL complete medium was added into the black control.
5. 37° C., 5% CO2 culture overnight.
The 2nd Day: Addition of the Drugs
1. 1000× Compound Plate Preparation
1.1. The test compound was prepared into 10 mM working solution by using DMSO. Then the STS was prepared into 2 mM working solution by using DMSO.
1.2. In the round bottom 96 wells plate, the column 2 of row A to H was added into 60 μL 10 mM test compound (or STS) working solution, columns 3-11 were added into 40 μL DMSO, 20 μL drug solution was pipetted from the column 2 to the column 3, blown and patted for a homogeneous mixture; then 20 μL solution was pipetted from the column 3 to the column 4, blown and patted for a homogeneous mixture, sequently, the drug was diluted by 3 times, 10 concentrations in total. The columns 1 and 12 were supplemented with 40 μL of DMSO.
2. Intermediate plate areparation
A sterile V-bottom 96 deep well plate was used and in each well, 495 μL FBS-free PRMI 1640 medium was added, then 5 μL of the diluted compound (or DMSO) in the 1000× compound plate was pipetted into corresponding position of the V-bottom 96 well plate, blown and patted evenly.
3.1. The cell plate was taken out from the incubator and was observed under microscope. The diluted compound or DMSO in the intermediate plate was added into the cell plate, 11 μL each well.
3.2. The cell was continued to be cultured at 37° C., 5% CO2 for 72 hours.
The 5th Day: CellTiter-Glo Detection of the Cell Activity
1. The CellTiter-Glo buffer and the reaction substrate were taken out from the refrigerator, after balanced to r.t., the buffer was poured into a brown bottle containing the substrate, the bottle was upside down to have the substrate powder sufficientaly dissolved.
2. The cell was observed under microscope; the cell plate was balanced to r.t.
3. The prepared CellTiter-Glo was added into the 96 well plate, at 100 μL/well.
4. The cell plate was placed on a shaker for 10 min, followed by standing at r.t. for 10 min.
5. A white seal film was attached to the bottom of the well plate, and the chemiluminescence signal of each well was detected by the Enspire microplate detector.
6. XLfit was used for data processing. Inhibition rate %=(d−c)/(d−b)×100, while d is the signal value of the DMSO treated group, c is the signal value of the compound treated group, b is signal value of the blank control that only containing medium and DMSO without cells. The data was fitted using the f(x)205[fit=(A+((B−A)/(1+((C/x)^∧D))))] equation in the XLfit software.

[1] = Metabolic stability in human liver microsomes; format: in vitro ADME; conditions: human liver microsomes 0.5 mg/mL, NADPH, 37° C.; for CLint scaled at 1 µM: pH 7.4, read-out: HLM_CLint
Procedure: (§1) Determinations of the metabolic stability of the compound from the above embodiments, the detailed operation steps are as followed:
(§2) 1. Preparation of buffer C:
(§3) Buffer A: 1.0 L of 0.1 M potassium dihydrogen phosphate buffer (containing 1.0 mM EDTA);
(§4) Buffer B: 1.0 L of 0.1 M dipotassium hydrogen phosphate buffer (containing 1.0 mM EDTA);
(§5) Buffer C: 500 mL Buffer B was titrated with Buffer A to pH 7.4.
(§6) 2. 10 mM stock solution preparation:
(§7) 10 mM test compound: A certain amount of the test compound was weighed and dissolved in DMSO.
(§8) 10 mM control: 5.455 mg of ketanserin dissolved in 1 mL DMSO.
(§9) 3. Preparation of the drug solution:
(§10) 500 μM solution: 5 μL of 10 mM stock solution (see step 2) was added into 95 μL ACN;
(§11) 1.5 μM dosing solution (dissolved in liver microsome solution):
(§12) 18.75 μL of 20 mg/mL liver microsomes was added into 479.75 μL of Buffer C, then 1.5 μL of 500 μM solution was added and mixed gently by shaking.
(§13) 4. Preparation of 6 mM NADPH solution:
(§14) 15 mg NADPH was weighted, then added into 3 mL of buffer C to prepare a 6 mM NADPH solution.
(§15) 5. 30 µL of 1.5 μM dosing solution (see step 3) was added into the wells of the 96-well plate set at different time points (0 minutes, 5 minutes, 15 minutes, 30 minutes, 45 minutes), number of dulplicate sample is 2.
(§16) 6. Preparation of a 0 minutes sample: 135 μL ACN (with internal standard) was added to the 0 minutes well, followed by 15 µL of 6 mM NADPH solution.
(§17) 7. The 96-well plate containing 1.5 μM dosing solution and NADPH solution were preheated in a 37° C. water bath for 5 minutes.
(§18) 8. The 15 µL of 6 mM NADPH solution preheated was added into the wells set to 5 minutes, 15 minutes, 30 minutes, 45 minutes, then the reaction was initiated and started counting the time.
(§19) 10. The sample was vortexed for 10 min, and then centrifuged for 15 minutes on a centrifuge (Thermo Multifuge×3R) using 5594×g.
(§20) 11. 50 μL of the supernatant was taken from the centrifuged sample, transferred to a 96-well sample plate to which 100 μL of ultrapure water had already been added, mixed, and finally sent to LC-MS/MS for analysis.
(§21) Half time (T1/2)=0.693/K (K is the rate constant obtained by linear regression of the logarithm of the concentration as vertical coordinates and the culturing time as the abscissa)
(§22) 2. According to the equation formula bellow, Excel was used to plot the compound content versus reaction time, as well as half life calculation (min)
(§23) Y=(Y0−Plateau)×e^(−K*X)+Plateau
(§24) Y0 represents the compound content at 0 minutes; Y represents the compound content; X represents the time point; K represents degration rate constant of the compound; Plateau represents the lowest possible content of the compound (defined herein as 0).

[2] = Metabolic stability in mouse liver microsomes; format: in vitro ADME; conditions: mouse liver microsomes 0.5 mg/mL, NADPH, 37° C.; for CLint scaled at 1 µM: pH 7.4, read-out: MLM_CLint
Procedure: as §1, §2, §3, §4, §5, §6, §7, §8, §9, §10, §11, §12, §13, §14, §15, §16, §17, §18, §19, §20, §21, §22, §23, §24

[3] = Cassette pharmacokinetic study, intravenous or oral administration; format: in vivo, female Balb/c nude mice; parameters: Cmax: unit not given here; conditions: for half-life: read-out: Terminal t1/2 (converted)
Procedure: Determinations of the pharmacokinetic parameters of ABBV-075 (standard control), 4009, 4018, 4026 and 4031 in femal Balb/c nude mice after intravenous or oral administration.
Detailed Experimental Steps:
6 female Balb/c nude mice weighing 18-20 g were divided into two groups (3/group), after fixation, the intravenous group: 0.5 mg/kg (5 mL/kg) injected by caudal vein (N=3); the oral group: 2 mg/kg (10 mL/kg) by intragastic administration (N=3). Approximately 20 μL of blood was drawn behind the eyeball at the sampling point and placed in EDTA-2K tube. The sample was immediately diluted with 40 μL of double distilled water and vortexed until well mixed. Blood samples were stored at approximately −70° C. and submitted to the BA group for analysis (LC/MS). 30 μL of blood sample was added with 200 μL of H2O and 30 μL of IS dexamethasone, 200 ng/mL), layered by LLE, and 1 mL of MTBW was added as an organic extraction solvent. The mixture was vortexed for 10 min and centrifuged at 10,000 rpm for 5 min. 850 μL of the supernatant was evaporated under nitrogen until desiccated. The desiccated extract was re-mixed with 150 μL of 50% methanol, vortexed for 2 min, and then analyzed by injecting 5 μL of the supernatant into LC-MS/MS.
2. Intravenous/oral administration formula: 5% DMSO, 95% (10% HP-3-CD in water)
3. PK calculation parameter used non-compartment model, WinNonlin 6.4 software calculation

[4] = female, Balb/c nude, mouse, whole blood, IV 0.5 mg/kg, N = 3, cassette
[5] = female, Balb/c nude, mouse, whole blood, PO 2 mg/kg, N = 3, cassette

SMILES	IC50 (BRD4 (BD1)) [nM]	IC50 (BRD4 (BD2)) [nM]	IC50 (MV-4-11 cells) [nM]	HLM_T1/2 [1]	MLM_T1/2 [2]	CLint scaled at 1 µM [2] [mL/min/kg]	CLint scaled at 1 µM [1] [mL/min/kg]	F ([3]; PO 2 mg/kg vs IV 0.5 mg/kg) [%]	Cmax ([3]; PO 2 mg/kg, N = 3, cassette)	AUC(0-inf) [3, 4] [ng·h/mL]	AUC(0-t) [3, 4] [ng·h/mL]	MRT inf [3, 4] [min]	clearance [3, 4] [mL/min/kg]	half-life [3, 4] [min]	Vd ([3]; female, Balb/c nude, mouse, whole blood, IV 0.5 mg/kg, N = 3, cassette, read-out: Vss) [L/kg]	AUC(0-inf) [3, 5] [ng·h/mL]	AUC(0-t) [3, 5] [ng·h/mL]	Tmax [3, 5] [min]	half-life [3, 5] [min]
CNS(=O)(=O)Cc1ccc2c(c1)-c1cn(C)c(=O)cc1[C@H](C)N=C2c1ccc(F)cc1 [Compound 4072, (S)-1-(7-(4-flurophenyl)-2,5-dimethyl-3-oxo-3,5-dihydro-2H-benzo[c]pyrido[3,4-e]azepin-10-yl)-N-methylmethane sulfamide]	1	1	6	∞	372.45 min	14.7	–	–	–	–	–	–	–	–	–	–	–	–	–
CCS(=O)(=O)Cc1ccc2c(c1)-c1cn(C)c(=O)cc1N(C)N=C2c1ccc(F)cc1 [Compound 4078, 10-((ethylsulfonyl)methyl)-7-(4-flurophenyl)-2,5-dimethyl-2,5-dihydro-3H-benzo[e]pyrido[4,3-c][1,2]diazepin-3-ketone]	5	2	14	727.04 min	195.55 min	27.9	2.39	–	–	–	–	–	–	–	–	–	–	–	–
C[C@@H]1N=C(c2ccc(F)cc2)c2ccc(CS(=O)(=O)N(C)C)cc2-c2cn(C)c(=O)cc21 [Compound 4073, (S)-1-(7-(4-flurophenyl)-2,5-dimethyl-3-oxo-3,5-dihydro-2H-benzo[c]pyrido[3,4-e]azepin-10-yl)-N,N-dimethylmethane sulfamide]	1	1	2	139.87 min	156.12 min	35	12.4	–	–	–	–	–	–	–	–	–	–	–	–
CCS(=O)(=O)Cc1ccc2c(c1)-c1cn(C)c(=O)cc1CN=C2c1ccc(F)cc1F [Compound 4012, 7-(2,4-difluorophenyl)-2-methyl-10-(ethylsulfonemethyl)-2H-benzo[c]pyrido[3,4-e]azepin-3(5H)-ketone]	4	2	80	1473.23 min	1568.22 min	3.48	1.18	–	–	–	–	–	–	–	–	–	–	–	–
C[C@@H]1N=C(c2ccc(F)cc2)c2ccc(CS(N)(=O)=O)cc2-c2cn(C)c(=O)cc21 [Compound 4071, (S)-(7-(4-flurophenyl)-2,5-dimethyl-3-oxo-3,5-dihydro-2H-benzo[c]pyrido[3,4-e]azepin-10-yl)methane sulfamide]	2	1	10	∞	∞	–	–	–	–	–	–	–	–	–	–	–	–	–	–
CC[C@@H]1N=C(c2ccc(F)cc2)c2ccc(CS(=O)(=O)CC)cc2-c2cn(C)c(=O)cc21 [Compound 4038, (S)-5-ethyl-10-((ethylsulfonyl)methyl)-7-(4-flurophenyl)-2-methyl-2,5-dihydro-3H-benzo[c]pyrido[3,4-e]azepin-3-ketone]	2	1	4	∞	∞	–	–	–	–	–	–	–	–	–	–	–	–	–	–
CCS(=O)(=O)Cc1ccc2c(c1)-c1nn(C)c(=O)cc1C(C)N=C2c1ccc(F)cc1 (centres unmarked) [Compound 4081, 10-((Ethylsulfonyl)methyl)-7-(4-flurophenyl)-2,5-dimethyl-2,5-dihydro-3H-benzo[c]pyridazino[3,4-e]azepin-3-ketone]	6	3	30	2952.57 min	∞	–	0.59	–	–	–	–	–	–	–	–	–	–	–	–
CCNC(=O)C[C@@H]1N=C(c2ccc(F)cc2)c2cc(OC)ccc2-c2cn(C)c(=O)cc21 [Compound 4023, (S)—N-ethyl-2-(7-(4-fluorophenyl)-9-methoxy-2-methyl-3-oxo-3,5-dihydro-2H-benzo[c]pyrido[3,4-e]azepin-5-yl)acetamide]	3	1	9	121.24 min	75.05 min	72.7	14.3	–	–	–	–	–	–	–	–	–	–	–	–
CCS(=O)(=O)Nc1ccc2c(c1)-c1cn(C)c(=O)cc1CN=C2c1ccc(F)cc1 [Compound 4018, N-(7-(4-fluorophenyl)-2-methyl-3-oxo-3,5-dihydro-2H-benzo[c]pyrido[3,4-e]azapin-10-yl)ethanesulfonamide]	3	2	5	1043.26 min	352.12 min	15.5	1.67	12.2	41.9	201	199	35.4	41.8	41.1	1.51	98.1	89.7	40	131
Cn1cc2c(cc1=O)[C@H](CC(N)=O)N=C(c1ccc(Cl)cc1)c1ccccc1-2 [Compound 4017, (S)-2-(7-(4-chlorophenyl)-2-methyl-3-oxo-3,5-dihydro-2H-benzo[c]pyrido[3,4-e]azepin-5-yl)acetamide]	4	2	10	854.27 min	215.28 min	25.4	2.03	–	–	–	–	–	–	–	–	–	–	–	–
CCNC(=O)C[C@@H]1N=C(c2ccc(Cl)cc2)c2ccccc2-c2cn(C)c(=O)cc21 [Compound 4016, (S)-2-(7-(4-chlorophenyl)-2-methyl-3-oxo-3,5-dihydro-2H-benzo[c]pyrido[3,4-e]azepin-5-yl)-N-ethylacetamide]	3	1	16	34.22 min	21.37 min	255	50.8	–	–	–	–	–	–	–	–	–	–	–	–
CCS(=O)(=O)Cc1ccc2c(c1)-c1cn(C)c(=O)cc1C(COC)N=C2c1ccc(F)cc1 (centres unmarked) [Compound 4082, 10-((ethylsulfonyl)methyl)-7-(4-flurophenyl)-5-(methoxylmethyl)-2-methyl-2,5-dihydro-3H-benzo[c]pyrido[3,4-e]azepin-3-ketone]	2	1	11	–	–	–	–	–	–	–	–	–	–	–	–	–	–	–	–
